# Results from patent US20190183851A1, “USE OF 3,4,7-TRIHYDROXYISOFLAVONE OR 3-METHOXYDAIDZEIN IN PREPARATION OF DRUG FOR INHIBITING PLATELET AGGREGATION AND THROMBOSIS” (Kunming Institute of Zoology, Chinese Academy of Sciences, priority 2017, published 2019).
# Columns and labels:
# [1] = test system: tail bleeding time of the mouse; experiment: evaluation of bleeding risk, tail bleeding time; assay type: in vivo, C57BL/6 mice; details: 80 mg/kg by gavage; 3, 6 and 12 hours after administration; mice
# Procedure: This embodiment relates to an evaluation of bleeding risk of 3,4,7-trihydroxyisoflavone and 3-methoxydaidzein.
# Each group included 8 male C57BL/6 (18-20 g). The test sample group and the control group were administered by gavage. After 3, 6 and 12 hours of administration, the mice were placed into a self-made special holder to make the tails pass through a trimmed 1 mL pipette tip. 5 mm of the tail tip was cut off with a sterilized razor blade, and the mouse tail was immediately immersed into normal saline at 37° C. The bleeding time of the tail was observed by using the bloodstream stop time as an indicator.
# [2] = test system: mouse-tail thrombus; experiment: carrageenan-induced mouse-tail thrombosis model; assay type: in vivo, Kunming mice; details: 24 h; for rate of thrombus inhibition versus dose: gavage 33, 100 and 300 μmol/kg; for rate of thrombus inhibition versus dose / inhibition of thrombosis in mouse tail versus negative control: carrageenan 40 mg/kg i.p.
# Procedure: This embodiment relates to a carrageenan-induced mouse-tail thrombosis model.
# The experiment animals, male Kunming mice, each with a body weight of 20-25 g, were randomly divided into groups (n=10) after fed for one week. The first group was a DMSO control group, the sample groups were gavaged with 3,4,7-trihydroxyisoflavone and 3-methoxydaidzein at concentrations respectively of 33, 100 and 300 μmol/kg, and the positive control was gavaged with 300 μmol/kg clopidogrel. 30 min after intragastric administration, carrageenan (type I, Sigma) was injected intraperitoneally into the mice at a dose of 40 mg/kg. Since the rate of thrombosis was >90% at a low temperature, the feeding temperature was 18° C. After 24 h, the mean length of thrombosis was determined according to the color change of the tail skin.
# [3] = test system: washed human platelets; experiment: collagen-induced platelet aggregation in washed human platelets; assay type: cell-based; details: 0.6 μg/mL collagen
# Procedure: The collagen-induced platelet aggregation was detected by using washed human platelets. […] The platelet washing method was as follows: a. 1.4 mL platelets (concentrated platelet plasma) were poured into each 1.5 mL EP tube, and centrifuged at 400 g under room temperature for 5 min, and the supernatant was discarded; b. the platelets in each tube were resuspended with 0.5 mL of a tyrode A solution, and two tubes of resuspended platelets were combined into a new 1.5 mL EP tube, mixed well and centrifuged at 400 g under room temperature for 5 min; c. the platelets in each tube were resuspended with 1 mL of the tyrode A solution, transferred into a new EP tube, and centrifuged at room temperature at 400 g under room temperature for 5 min; d. the platelets in each tube were resuspended with 1 mL of a tyrode B solution, and the platelets were adjusted to an appropriate concentration with the tyrode B solution.
# [4] = test system: Healthy human platelets; experiment: ADP-induced platelet aggregation in PRP; assay type: cell-based; details: 70 μmol/L ADP; for concentration dependence of inhibition of ADP-induced platelet aggregation: FIGS. 3 and 4
# Procedure: Healthy human platelets were diluted with plasma to 2.5×10^8 platelets per mL. 300 μL of plasma-rich platelets was taken, added into different concentrations of samples at 37° C. and maintained at this temperature for 5 min, then added with 70 μmol/L ADP to induce aggregation, and an aggregation curve within 5 min was plotted on a platelet aggregation instrument. Platelet aggregation without sample treatment was used as a control.
# 300 μM of 3-methoxydaidzein could inhibit about 50% of platelet aggregation, while 100 μM of 3,4,7-trihydroxyisoflavone could inhibit about 50% of platelet aggregation.
Compound,tail bleeding activity versus non-administrated group (FIG. 9) [1],rate of thrombus inhibition versus dose [2],inhibition of thrombosis in mouse tail versus negative control ([2]; oral 300 μmol/kg),"inhibition at 20 µM ([3]; Platelet, 20 μM compound, washed human platelets) [%]",concentration dependence of inhibition of ADP-induced platelet aggregation [4],"inhibition at 300 µM ([4]; Homo sapiens, Platelet, 300 μM compound) [%]",tail bleeding activity versus non-administrated group (FIG. 8) [1],"average thrombus length compared with clopidogrel ([2]; gavage 300 μmol/kg, compared with 300 μmol/kg clopidogrel)",inhibition of thrombosis in mouse tail versus negative control ([2]; oral 100 μmol/kg),concentration dependence of inhibition of collagen-induced platelet aggregation ([3]; FIGS. 1 and 2),"inhibition of platelet aggregation ([3]; 20 μM compound, washed human platelets)","inhibition at 100 µM ([4]; Homo sapiens, Platelet, 100 μM compound) [%]"
COc1cc(-c2coc3cc(O)ccc3c2=O)ccc1O [3-methoxydaidzein],did not show any significant bleeding activity,increased along with the increase of concentration,significantly inhibit,~50,gradient-dependent manner,~50,–,–,–,–,–,–
"COC(=O)[C@H](c1ccccc1Cl)N1CCc2sccc2C1 [clopidogrel, reference compound]",increased bleeding significantly,–,–,–,–,–,increased bleeding significantly,–,–,–,–,–
"O=c1c(-c2ccc(O)c(O)c2)coc2cc(O)ccc12 [3,4,7-trihydroxyisoflavone]",–,increased along with the increase of concentration,–,–,gradient-dependent manner,–,did not show any significant bleeding activity,shorter than that of the group gavaged with 300 μmol/kg of clopidogrel,significantly inhibit,gradient-dependent manner,completely inhibit,~50
